Experimental data reported in publication PMC3200116 (Journal of medicinal chemistry, 2011).
Counter-ions that a name gives are not always drawn.

Columns and labels:
α4β2 nACh receptors [1] = target: T1, α4β2 nACh receptors (Homo sapiens, UniProt P17787+P43681); conditions: potentiation of ACh at α4β2, cited from earlier work
human α7 nACh receptors = human α7 nACh receptors (Homo sapiens, UniProt P36544); conditions: at concentrations slightly higher than those potentiating at α4β2; cited from earlier work
Chain of human α7 nACh receptors (P36544 23-502): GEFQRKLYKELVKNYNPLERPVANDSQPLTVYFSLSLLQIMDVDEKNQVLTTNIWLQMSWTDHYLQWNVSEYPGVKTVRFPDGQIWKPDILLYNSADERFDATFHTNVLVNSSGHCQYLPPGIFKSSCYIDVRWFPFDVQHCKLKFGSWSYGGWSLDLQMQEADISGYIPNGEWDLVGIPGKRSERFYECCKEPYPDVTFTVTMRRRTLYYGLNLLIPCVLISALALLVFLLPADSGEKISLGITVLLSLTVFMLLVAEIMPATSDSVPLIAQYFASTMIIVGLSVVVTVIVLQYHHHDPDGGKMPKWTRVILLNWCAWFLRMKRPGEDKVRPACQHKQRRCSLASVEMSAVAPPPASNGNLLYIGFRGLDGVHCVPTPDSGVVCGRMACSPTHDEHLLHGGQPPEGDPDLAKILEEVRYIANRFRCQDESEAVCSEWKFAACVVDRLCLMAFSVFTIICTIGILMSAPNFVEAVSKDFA

α7 nACh receptors = conditions: cited from earlier work
α3β2 nACh receptors = conditions: Xenopus oocytes; cited from earlier work
α3β4 nACh receptors = conditions: Xenopus oocytes; cited from earlier work
α4β4 nACh receptors = conditions: Xenopus oocytes; cited from earlier work
α4β2 nACh receptors [2] = target: T1, α4β2 nACh receptors; assay type: cell-based; conditions: for potency as positive allosteric modulator relative to 1: compared with 1; for positive allosteric modulation (potentiation of ACh), in words: highest concentrations evaluated
α4β2 nACh receptors [3] = target: T1, α4β2 nACh receptors; experiment: Antagonism; assay type: cell-based

T1 sequence (P43681 27-627): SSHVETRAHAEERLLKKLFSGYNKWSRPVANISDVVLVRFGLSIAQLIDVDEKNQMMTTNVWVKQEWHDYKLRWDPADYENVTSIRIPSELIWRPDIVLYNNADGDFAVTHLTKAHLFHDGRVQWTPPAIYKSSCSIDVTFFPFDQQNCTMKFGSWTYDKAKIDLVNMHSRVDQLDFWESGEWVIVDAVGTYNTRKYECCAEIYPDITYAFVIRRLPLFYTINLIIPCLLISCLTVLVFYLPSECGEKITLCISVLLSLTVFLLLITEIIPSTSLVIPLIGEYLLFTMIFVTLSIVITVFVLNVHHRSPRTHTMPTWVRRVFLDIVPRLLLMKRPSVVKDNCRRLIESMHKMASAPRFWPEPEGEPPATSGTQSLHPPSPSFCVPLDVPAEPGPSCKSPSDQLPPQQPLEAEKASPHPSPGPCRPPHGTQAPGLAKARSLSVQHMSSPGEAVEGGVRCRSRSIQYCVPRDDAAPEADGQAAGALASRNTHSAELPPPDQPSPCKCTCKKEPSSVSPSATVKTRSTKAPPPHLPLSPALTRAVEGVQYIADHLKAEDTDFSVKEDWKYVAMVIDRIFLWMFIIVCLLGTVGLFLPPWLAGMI
T1 sequence (P17787 26-502): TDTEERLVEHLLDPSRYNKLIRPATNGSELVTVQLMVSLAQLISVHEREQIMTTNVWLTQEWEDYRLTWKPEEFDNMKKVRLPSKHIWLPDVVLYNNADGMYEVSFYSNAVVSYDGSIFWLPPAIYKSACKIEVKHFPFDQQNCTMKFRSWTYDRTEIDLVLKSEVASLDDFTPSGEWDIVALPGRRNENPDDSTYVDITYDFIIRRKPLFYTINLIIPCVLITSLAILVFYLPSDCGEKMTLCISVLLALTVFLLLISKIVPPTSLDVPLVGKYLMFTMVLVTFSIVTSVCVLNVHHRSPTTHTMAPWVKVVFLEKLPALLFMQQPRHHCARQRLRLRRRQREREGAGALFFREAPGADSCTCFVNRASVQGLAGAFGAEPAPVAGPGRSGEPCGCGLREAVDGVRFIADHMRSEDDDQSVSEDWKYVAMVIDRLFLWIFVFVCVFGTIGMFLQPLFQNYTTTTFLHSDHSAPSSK

Compound	positive allosteric modulation (potentiation of ACh), in words (α4β2 nACh receptors [2])	IC50 (α4β2 nACh receptors [3]) [µM]	further results
C=CC(C)(C)c1[nH]c2cc(Br)ccc2c1CCNC.Cl [Compound 1, des-formylflustrabromine]			pEC50 originally reported (α4β2 nACh receptors [1]): ca. 6.8; EC50 (α4β2 nACh receptors [1]; read-out: EC50 originally reported): 0.12 µM; inhibition of the action of ACh in an α7 preparation (human α7 nACh receptors): inhibited; potentiation of the actions of ACh at α7 (α7 nACh receptors; Xenopus oocytes): failed to potentiate; potentiation of the action of ACh in an α7 preparation (α7 nACh receptors): failed to potentiate; potentiation of the actions of ACh at α3β2 (α3β2 nACh receptors): failed to potentiate; potentiation of the actions of ACh at α3β4 (α3β4 nACh receptors): failed to potentiate; potentiation of the actions of ACh at α4β4 (α4β4 nACh receptors): failed to potentiate
C=CC(C)(C)c1[nH]c2cc(Br)ccc2c1CCN [Compound 2, 6-Bromo-2-(1,1-dimethylallyl)tryptamine Hydrochloride]			potency as positive allosteric modulator relative to 1 (α4β2 nACh receptors [2]): about half as potent as 1
CNCCc1c[nH]c2cc(Br)ccc12 [Compound 3, N-Methyl-6-bromotryptamine]	failed to enhance the action of ACh	39.8	
CCCc1[nH]c2cc(Br)ccc2c1CCNC [Compound 4, N-Methyl-6-bromo-2-n-propyltryptamine Oxalate]		72.4	
C=CCc1[nH]c2cc(Br)ccc2c1CCNC [Compound 5, N-Methyl-2-allyl-6-bromotryptamine Oxalate]	lacked potentiating activity	3.55	
CCC(C)(C)c1[nH]c2cc(Br)ccc2c1CCNC [Compound 6, N-Methyl-6-bromo-2-(1,1-dimethylpropyl)tryptamine Oxalate]			potency as positive allosteric modulator relative to 1 (α4β2 nACh receptors [2]): at least as potent, if not twice as potent, as 1
CCC(C)c1[nH]c2ccccc2c1CCNC (stereo not drawn) [Compound 9, N-Methyl-2-sec-butyltryptamine Oxalate]	inactive	16.6	
CCCc1[nH]c2ccccc2c1CCNC [Compound 10, N-Methyl-2-(n-propyl)tryptamine Oxalate]	inactivity	18.6	
CNCCc1c(C(C)(C)C)[nH]c2ccccc12 [Compound 11, N-Methyl-2-(tert-butyl)tryptamine Hydrogen Oxalate]	active		
CNCCc1c(C(C)C)[nH]c2ccccc12 [Compound 12, N-Methyl-2-isopropyltryptamine Hydrochloride]	inactive		
